One data set concerns U87MG tumor xenograft. Conditions: peptide conjugated to a small molecule fluorochrome or radiolabel; compared to weaker binding peptide conjugates including FN-RGD2 and c(RGDyK); cited from earlier work.
For data set [1] the following is noted: human serum, 37 °C, 24 h, reversed-phase HPLC.
For data set [2] the following is noted: mouse, serum.
In data set [3] the test system is U87MG cell adhesion to fibronectin-coated plates. Nature of the data set: Integrin-dependent cell adhesion assay. Conditions: U87MG cells, 2 h. It counts as cell-based, human.
In data set [4] the target is integrin αvβ3 (Homo sapiens) (UniProt P06756). Conditions: cited from earlier work.
The target of a further data set is αvβ3 integrin (Homo sapiens, UniProt P05106+P06756). The settings on record: cited from earlier work.
The target of another data set is α5β1 integrin (Homo sapiens, UniProt P05556+P08648). Conditions: cited from earlier work.

Positions of bridges follow the written chain, without caps; N, C: chain ends. Residues, ends and D or L forms follow the SMILES beside them.

Chain of integrin αvβ3 (Homo sapiens) (P06756 31-1048, chain 1 of 2): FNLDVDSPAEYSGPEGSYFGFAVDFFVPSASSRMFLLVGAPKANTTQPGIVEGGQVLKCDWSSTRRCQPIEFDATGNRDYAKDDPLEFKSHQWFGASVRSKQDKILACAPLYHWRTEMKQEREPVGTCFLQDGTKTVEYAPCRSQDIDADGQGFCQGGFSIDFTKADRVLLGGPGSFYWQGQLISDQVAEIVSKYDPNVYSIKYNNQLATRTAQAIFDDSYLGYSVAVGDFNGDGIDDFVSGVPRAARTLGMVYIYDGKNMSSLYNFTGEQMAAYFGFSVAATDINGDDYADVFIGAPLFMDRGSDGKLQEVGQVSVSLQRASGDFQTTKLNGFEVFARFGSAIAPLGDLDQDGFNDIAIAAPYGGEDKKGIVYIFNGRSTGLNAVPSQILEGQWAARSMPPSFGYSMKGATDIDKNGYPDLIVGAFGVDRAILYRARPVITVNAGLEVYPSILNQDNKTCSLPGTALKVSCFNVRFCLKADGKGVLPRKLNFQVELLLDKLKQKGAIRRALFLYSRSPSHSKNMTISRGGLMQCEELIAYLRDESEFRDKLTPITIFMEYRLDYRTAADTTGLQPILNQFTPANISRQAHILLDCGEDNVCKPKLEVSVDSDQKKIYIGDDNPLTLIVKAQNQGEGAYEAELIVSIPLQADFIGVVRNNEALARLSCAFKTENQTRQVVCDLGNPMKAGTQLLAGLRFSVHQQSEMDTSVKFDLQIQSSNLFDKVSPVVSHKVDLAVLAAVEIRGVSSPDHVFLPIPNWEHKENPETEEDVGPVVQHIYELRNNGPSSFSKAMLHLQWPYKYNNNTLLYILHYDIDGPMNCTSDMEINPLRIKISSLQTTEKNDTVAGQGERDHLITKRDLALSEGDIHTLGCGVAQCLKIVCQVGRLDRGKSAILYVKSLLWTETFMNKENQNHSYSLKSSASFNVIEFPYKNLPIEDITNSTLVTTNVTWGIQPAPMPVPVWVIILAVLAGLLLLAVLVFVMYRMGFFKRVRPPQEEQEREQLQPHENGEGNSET
Chain of integrin αvβ3 (Homo sapiens) (P05106 27-788, chain 2 of 2, further chain): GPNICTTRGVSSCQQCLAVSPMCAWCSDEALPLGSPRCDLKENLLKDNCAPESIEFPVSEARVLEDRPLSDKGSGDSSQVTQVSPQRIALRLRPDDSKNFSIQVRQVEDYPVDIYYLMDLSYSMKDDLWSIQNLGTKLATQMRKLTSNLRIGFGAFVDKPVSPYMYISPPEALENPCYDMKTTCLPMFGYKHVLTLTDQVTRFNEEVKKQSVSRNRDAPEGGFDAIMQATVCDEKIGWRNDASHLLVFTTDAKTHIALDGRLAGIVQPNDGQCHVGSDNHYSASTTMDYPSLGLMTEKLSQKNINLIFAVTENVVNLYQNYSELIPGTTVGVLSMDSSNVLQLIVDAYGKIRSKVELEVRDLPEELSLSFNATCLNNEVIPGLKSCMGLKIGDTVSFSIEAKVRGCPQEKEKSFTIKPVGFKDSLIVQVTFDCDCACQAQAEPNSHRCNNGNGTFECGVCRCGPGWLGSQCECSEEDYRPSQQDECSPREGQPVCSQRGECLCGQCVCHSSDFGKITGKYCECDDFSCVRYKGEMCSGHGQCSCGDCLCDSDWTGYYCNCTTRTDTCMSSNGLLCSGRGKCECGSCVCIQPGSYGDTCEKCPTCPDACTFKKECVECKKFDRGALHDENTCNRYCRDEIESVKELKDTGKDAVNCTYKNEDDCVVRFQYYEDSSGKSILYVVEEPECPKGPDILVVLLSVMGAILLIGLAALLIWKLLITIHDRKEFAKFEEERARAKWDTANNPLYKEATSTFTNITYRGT
Chain of αvβ3 integrin (P06756 31-889 limits assumed): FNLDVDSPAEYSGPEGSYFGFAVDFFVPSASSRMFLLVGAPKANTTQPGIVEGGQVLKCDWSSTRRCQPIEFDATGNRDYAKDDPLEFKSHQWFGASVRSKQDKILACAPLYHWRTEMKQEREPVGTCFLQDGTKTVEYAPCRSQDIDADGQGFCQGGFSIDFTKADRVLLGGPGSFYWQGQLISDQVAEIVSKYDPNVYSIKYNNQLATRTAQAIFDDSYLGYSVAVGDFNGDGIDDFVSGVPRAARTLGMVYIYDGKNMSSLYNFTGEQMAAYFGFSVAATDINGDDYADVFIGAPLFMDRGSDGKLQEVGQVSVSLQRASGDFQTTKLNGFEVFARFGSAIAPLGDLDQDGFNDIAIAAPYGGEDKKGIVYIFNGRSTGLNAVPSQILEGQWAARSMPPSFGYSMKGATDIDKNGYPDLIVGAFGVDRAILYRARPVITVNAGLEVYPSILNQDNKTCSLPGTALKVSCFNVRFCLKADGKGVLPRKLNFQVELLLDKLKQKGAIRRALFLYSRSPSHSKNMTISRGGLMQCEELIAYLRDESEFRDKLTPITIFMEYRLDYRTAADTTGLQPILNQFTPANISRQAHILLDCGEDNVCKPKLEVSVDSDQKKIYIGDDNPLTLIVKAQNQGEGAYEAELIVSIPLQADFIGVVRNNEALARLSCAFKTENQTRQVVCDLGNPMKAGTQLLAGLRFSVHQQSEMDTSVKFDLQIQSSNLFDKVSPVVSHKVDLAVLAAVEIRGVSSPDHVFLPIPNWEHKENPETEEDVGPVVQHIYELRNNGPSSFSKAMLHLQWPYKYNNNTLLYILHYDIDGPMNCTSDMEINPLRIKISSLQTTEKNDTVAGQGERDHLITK
Chain of αvβ3 integrin (P06756 891-1048 partner limits assumed): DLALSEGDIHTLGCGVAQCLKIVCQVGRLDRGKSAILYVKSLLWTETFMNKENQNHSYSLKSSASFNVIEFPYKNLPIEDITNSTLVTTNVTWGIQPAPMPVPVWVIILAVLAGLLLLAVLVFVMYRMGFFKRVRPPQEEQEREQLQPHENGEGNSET
Chain of αvβ3 integrin (P05106 27-788): as the sequence (P05106 27-788, chain 2 of 2, further chain) above
Chain of α5β1 integrin (P08648 42-894 limits assumed): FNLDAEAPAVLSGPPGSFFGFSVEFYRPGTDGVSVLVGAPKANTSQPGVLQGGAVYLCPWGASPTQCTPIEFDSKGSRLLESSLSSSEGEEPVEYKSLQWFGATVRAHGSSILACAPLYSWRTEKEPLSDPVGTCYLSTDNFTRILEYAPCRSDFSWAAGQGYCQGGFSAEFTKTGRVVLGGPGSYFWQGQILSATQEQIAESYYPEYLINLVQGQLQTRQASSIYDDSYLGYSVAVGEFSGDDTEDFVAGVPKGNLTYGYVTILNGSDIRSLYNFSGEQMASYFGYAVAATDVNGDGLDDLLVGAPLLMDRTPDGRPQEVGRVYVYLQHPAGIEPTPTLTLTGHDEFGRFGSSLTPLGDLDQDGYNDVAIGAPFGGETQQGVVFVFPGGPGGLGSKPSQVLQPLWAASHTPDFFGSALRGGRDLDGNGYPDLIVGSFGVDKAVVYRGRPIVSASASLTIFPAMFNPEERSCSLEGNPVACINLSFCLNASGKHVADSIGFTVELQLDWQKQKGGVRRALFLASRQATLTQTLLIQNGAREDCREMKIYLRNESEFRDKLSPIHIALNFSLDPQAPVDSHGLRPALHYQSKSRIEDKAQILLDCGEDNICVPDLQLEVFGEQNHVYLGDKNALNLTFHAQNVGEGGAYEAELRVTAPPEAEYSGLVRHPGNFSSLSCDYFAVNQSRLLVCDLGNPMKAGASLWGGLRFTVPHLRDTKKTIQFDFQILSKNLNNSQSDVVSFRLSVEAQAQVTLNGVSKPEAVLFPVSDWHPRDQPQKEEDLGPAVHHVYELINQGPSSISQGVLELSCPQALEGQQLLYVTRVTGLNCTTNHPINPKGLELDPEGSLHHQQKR
Chain of α5β1 integrin (P08648 895-1049 partner limits assumed): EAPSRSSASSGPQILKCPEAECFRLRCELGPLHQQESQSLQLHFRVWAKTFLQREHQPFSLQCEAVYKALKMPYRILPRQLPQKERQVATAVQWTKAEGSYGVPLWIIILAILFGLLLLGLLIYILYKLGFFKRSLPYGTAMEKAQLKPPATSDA
Chain of α5β1 integrin (P05556 21-798): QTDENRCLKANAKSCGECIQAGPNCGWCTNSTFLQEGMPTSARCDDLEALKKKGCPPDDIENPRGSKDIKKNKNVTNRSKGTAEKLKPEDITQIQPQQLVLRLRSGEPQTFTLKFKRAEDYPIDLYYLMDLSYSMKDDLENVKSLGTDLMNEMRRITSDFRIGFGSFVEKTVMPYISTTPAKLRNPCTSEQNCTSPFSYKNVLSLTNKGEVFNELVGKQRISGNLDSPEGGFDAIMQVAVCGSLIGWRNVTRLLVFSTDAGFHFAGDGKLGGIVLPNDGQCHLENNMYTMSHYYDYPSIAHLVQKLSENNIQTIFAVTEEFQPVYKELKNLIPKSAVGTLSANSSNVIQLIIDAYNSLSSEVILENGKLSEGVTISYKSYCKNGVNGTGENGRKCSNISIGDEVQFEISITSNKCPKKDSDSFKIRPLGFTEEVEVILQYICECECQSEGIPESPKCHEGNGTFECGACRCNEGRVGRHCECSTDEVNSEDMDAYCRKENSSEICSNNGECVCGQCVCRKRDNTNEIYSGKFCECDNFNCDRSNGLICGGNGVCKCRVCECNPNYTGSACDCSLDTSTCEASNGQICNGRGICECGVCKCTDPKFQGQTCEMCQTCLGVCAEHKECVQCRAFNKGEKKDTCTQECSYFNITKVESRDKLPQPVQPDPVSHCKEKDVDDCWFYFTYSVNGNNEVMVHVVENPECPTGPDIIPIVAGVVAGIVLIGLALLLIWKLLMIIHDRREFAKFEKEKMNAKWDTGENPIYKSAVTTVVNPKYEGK
Chain of Echistatin (P17347 131-179): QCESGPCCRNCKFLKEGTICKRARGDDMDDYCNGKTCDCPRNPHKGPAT

On to `CC(C)C[C@@H]1NC(=O)[C@@H]2CSSC[C@@H](C(=O)NCC(=O)O)NC(=O)[C@H](Cc3ccccc3)NC(=O)CNC(=O)[C@H](CC(N)=O)NC(=O)[C@@H]3CCCN3C(=O)CNC(=O)[C@@H]3CSSC[C@H](NC(=O)[C@H](CO)NC(=O)[C@H]([C@@H](C)O)NC(=O)[C@@H]4CCCN4C(=O)[C@H](C)NC(=O)[C@H](Cc4c[nH]c5ccccc45)NC(=O)[C@H](CC(=O)O)NC(=O)CNC(=O)[C@H](CCCNC(=N)N)NC(=O)CNC(=O)[C@H](CCC(N)=O)NC(=O)[C@@H]4CCCN4C(=O)[C@@H](NC(=O)CN)CSSC[C@H](NC(=O)CNC(=O)[C@H](C)NC1=O)C(=O)N[C@@H](C(C)C)C(=O)N3)C(=O)N[C@@H](CO)C(=O)N[C@@H](CCC(N)=O)C(=O)N[C@@H](CC(=O)O)C(=O)N[C@@H](CO)C(=O)N[C@@H](CC(=O)O)C(=O)N2` [2.5D] (H-GCPQGRGDWAPTSCSQDSDCLAGCVCGPNGFCG-OH; disulfide 2-24, 14-26, 20-32), for which the “tumor uptake (in words)” value in the data set with U87MG tumor xenograft is recorded as “significant increase in tumor uptake”. Also, the intact peptide remaining result in data set [1] is “approximately 90%”. This molecule also displayed a share remaining at 24 h in data set [2] of about 90%.

Turning to Echistatin, the “block of U87MG cell adhesion to fibronectin-coated plates (in words)” value in data set [3] is reported as “able to block”.

Take Echistatin (from UniProt P17347): the Kd in data set [4] was 0.36 nM. With `CC(C)C[C@@H]1NC(=O)[C@@H]2CSSC[C@@H](C(=O)NCC(=O)O)NC(=O)[C@H](Cc3ccccc3)NC(=O)CNC(=O)[C@H](CC(N)=O)NC(=O)[C@@H]3CCCN3C(=O)CNC(=O)[C@@H]3CSSC[C@H](NC(=O)[C@H]([C@@H](C)O)NC(=O)[C@H](CC(C)C)NC(=O)[C@@H]4CCCN4C(=O)[C@@H]4CCCN4C(=O)[C@H](CC(N)=O)NC(=O)[C@H](CC(=O)O)NC(=O)CNC(=O)[C@H](CCCNC(=N)N)NC(=O)[C@@H]4CCCN4C(=O)[C@H](CCCNC(=N)N)NC(=O)[C@@H]4CCCN4C(=O)[C@@H](NC(=O)CN)CSSC[C@H](NC(=O)CNC(=O)[C@H](C)NC1=O)C(=O)N[C@@H](C(C)C)C(=O)N3)C(=O)N[C@@H](CO)C(=O)N[C@@H](CCC(N)=O)C(=O)N[C@@H](CC(=O)O)C(=O)N[C@@H](CO)C(=O)N[C@@H](CC(=O)O)C(=O)N2` [2.5F] (H-GCPRPRGDNPPLTCSQDSDCLAGCVCGPNGFCG-OH; disulfide 2-24, 14-26, 20-32), the “tumor uptake (in words)” value in the data set with U87MG tumor xenograft is on record as “significant increase in tumor uptake”. As to Ac-PHSCN-NH2 [ATN-161], the “binding affinity to αvβ3 integrin (in words)” value at αvβ3 integrin is recorded as “micromolar affinity”. In addition, on α5β1 integrin, the “binding affinity to α5β1 integrin (in words)” value is recorded as “micromolar affinity”.

The values above are taken from paper PMC5792193 (Proteins, 2009).
